One assay addresses human plasma kallikrein (Homo sapiens (Human), UniProt P03952). Briefly: Plasma kallikrein activity assay (chromogenic substrate S2302). It is filed as biochemical. The note with it: 2 nM kallikrein, 80 μM S2302, 30° C., pH 7.8; Cheng-Prusoff; reported as ranges.
In assay [1] the test system is patients with hereditary angioedema (HAE). The note with it: in vivo; cited from earlier work.

Each structure is given as a SMILES string.

The values below come from patent publication US11230530B2, “Human plasma kallikrein inhibitors” (BioCryst Pharmaceuticals, Inc., priority 2014, dated 2022).

For orientation: Ki means a measure of affinity in units of concentration, obtained from inhibition or displacement. Read a high Ki as weaker binding.

Chain of human plasma kallikrein (P03952 whole entry, looked up): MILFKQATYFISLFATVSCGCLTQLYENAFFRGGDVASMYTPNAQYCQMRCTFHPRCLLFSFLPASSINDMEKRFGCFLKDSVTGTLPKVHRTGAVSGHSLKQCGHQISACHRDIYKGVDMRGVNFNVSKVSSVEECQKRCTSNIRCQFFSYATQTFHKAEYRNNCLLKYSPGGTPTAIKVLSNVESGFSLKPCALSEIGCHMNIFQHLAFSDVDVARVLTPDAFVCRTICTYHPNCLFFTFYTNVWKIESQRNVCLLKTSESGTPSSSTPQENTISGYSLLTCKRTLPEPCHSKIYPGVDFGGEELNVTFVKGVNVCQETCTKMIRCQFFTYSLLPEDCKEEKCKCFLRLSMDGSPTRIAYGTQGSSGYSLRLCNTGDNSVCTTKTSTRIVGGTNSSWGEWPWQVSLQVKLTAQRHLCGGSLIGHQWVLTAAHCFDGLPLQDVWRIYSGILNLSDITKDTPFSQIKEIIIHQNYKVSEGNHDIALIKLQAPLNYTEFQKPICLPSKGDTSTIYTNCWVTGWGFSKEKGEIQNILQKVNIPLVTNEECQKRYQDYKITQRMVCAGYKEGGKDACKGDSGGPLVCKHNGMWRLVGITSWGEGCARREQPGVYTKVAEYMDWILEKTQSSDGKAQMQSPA
Chain of human plasma kallikrein (P03952 whole entry partner, looked up): as the sequence (P03952 whole entry, looked up) above
Description for human plasma kallikrein: Plasma kallikrein activity assay. The effect of compounds of the invention on human plasma kallikrein activity was determined using the chromogenic substrates (DiaPharma Group, Inc., West Chester, Ohio, USA). In these experiments, 2 nM kallikrein (Enzyme Research Laboratories, South Bend, Ind., USA) was incubated with 80 μM S2302 (H-D-Pro-Phe-Arg-p-nitroaniline) in the absence or presence of increasing concentrations of compounds of the invention in a final volume of 200 μL Tris-HCl buffer (200 mM NaCl; 2.5 mM CaCl2; 50 mM Tris-HCl, pH 7.8).
Data were analyzed using SigmaPlot software (Systat Software, Inc., San Jose, Calif., USA) (Four Parameter Logistic Curve).

Consider `Cc1cc(C(=O)Nc2cccc(C(NCC3CC3)c3cc(O)ccc3O)c2)n(-c2cccc(CN)c2)n1` (centres unmarked) [Compound 146g, 1-(3-(Aminomethyl)phenyl)-N-(3-((cyclopropylmethylamino)(2,5-dihydroxyphenyl)methyl)phenyl)-3-methyl-1H-pyrazole-5-carboxamide], for which the inhibitory constant (Ki) at human plasma kallikrein is 0.1 to 50 nM.

Turning to `NC(N)=NCCC[C@@H](N)C(=O)N[C@@H](CCCN=C(N)N)C(=O)N1CCC[C@H]1C(=O)N1C[C@H](O)C[C@H]1C(=O)NCC(=O)N[C@@H](Cc1cccs1)C(=O)N[C@@H](CO)C(=O)N1Cc2ccccc2C[C@@H]1C(=O)N1[C@H](C(=O)N[C@@H](CCCN=C(N)N)C(=O)O)C[C@@H]2CCCC[C@@H]21` [Icatibant], in assay [1], the “treating HAE” value was “effective”.
